Experimental data published in US9896445B2, “Heterocyclic inhibitors of ERK1 and ERK2 and their use in the treatment of cancer” (Asana Biosciences, LLC, priority 2015, dated 2018).

What was measured:
ERK1 = biological target: T1, ERK1 (Homo sapiens, UniProt P27361); assay: ERK1 HTRF (biochemical) assay
T1 construct: purchased Jubilant Biosys
Method: ERK1 and ERK2 HTRF (Biochemical) Assays
These assays employed a homogeneous time resolved fluorescence (HTRF) technique. […] The plate was incubated at room temperature for 60 min with shaking. […] The IC50 values (half maximal inhibitory concentration values) were subsequently determined using a sigmoidal dose-response curve (variable slope) in GraphPad Prism® 5 software.

ERK2 = biological target: T2, ERK2 (Homo sapiens, UniProt P28482); assay: ERK2 HTRF (biochemical) assay
T2 construct: purchased Jubilant Biosys
T2 sequence (P28482 whole entry): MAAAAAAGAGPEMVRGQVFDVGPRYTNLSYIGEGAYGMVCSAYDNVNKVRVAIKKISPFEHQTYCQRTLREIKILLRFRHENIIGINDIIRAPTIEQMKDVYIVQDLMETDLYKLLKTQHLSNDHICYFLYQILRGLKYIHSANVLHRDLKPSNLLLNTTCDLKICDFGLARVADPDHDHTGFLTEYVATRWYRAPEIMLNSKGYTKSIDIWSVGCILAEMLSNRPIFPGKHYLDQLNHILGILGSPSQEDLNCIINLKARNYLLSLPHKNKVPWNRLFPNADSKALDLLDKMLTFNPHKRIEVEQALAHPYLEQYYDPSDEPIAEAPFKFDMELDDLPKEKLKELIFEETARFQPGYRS
Summary of the method: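 Readout was time-resolved FRET between europium anti-phospho-MBP and streptavidin-APC after a 60-min room-temperature kinase step. That step used ERK2 (25 nM in enzyme mix), biotinylated MBP peptide (1 uM) and ATP (24 uM) from the substrate mix, in pH 7.5 Tris buffer.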

T1 sequence (P27361 whole entry): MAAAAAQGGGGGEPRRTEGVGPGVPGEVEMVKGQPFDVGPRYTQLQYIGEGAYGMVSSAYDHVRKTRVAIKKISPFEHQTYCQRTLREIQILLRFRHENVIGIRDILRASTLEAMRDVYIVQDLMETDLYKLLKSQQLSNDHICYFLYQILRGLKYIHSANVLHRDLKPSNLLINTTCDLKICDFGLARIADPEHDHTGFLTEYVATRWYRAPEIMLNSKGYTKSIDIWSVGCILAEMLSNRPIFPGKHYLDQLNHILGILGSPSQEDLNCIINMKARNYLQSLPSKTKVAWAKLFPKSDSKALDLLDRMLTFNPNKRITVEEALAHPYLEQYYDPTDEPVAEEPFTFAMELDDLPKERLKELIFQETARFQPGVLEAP

## Cc1cnc(Nc2ccc(F)cc2Cl)nc1-n1cnc(C(=O)NC(CO)c2cccc(Cl)c2)c1 (stereo not drawn) [Compound 166, 1-(2-((2-chloro-4-fluorophenyl)amino)-5-methyl-pyrimidin-4-yl)-N-(1-(3-chlorophenyl)-2-hydroxyethyl)-1H-imidazole-4-carboxamide]
ERK1; HTRF
  IC50: < 50 nM
ERK2; HTRF
  IC50: ≤ 50 nM

## Cc1cnc(NC2CCOCC2)nc1-n1cnc(C(=O)NCc2ccc(Cl)cc2CO)c1 [Example 343, N-(4-chloro-2-hydroxymethyl-benzyl)-1-(5-methyl-2-((tetrahydro-2H-pyran-4-yl)amino)-pyrimidin-4-yl)-1H-imidazole-4-carboxamide]
ERK1; HTRF biochemical assay
  IC50: < 50 nM
ERK2; HTRF biochemical assay
  IC50: ≤ 50 nM

## Cc1cnc(Nc2ccc(C3CCNCC3)cc2)nc1-n1ccc(C(=O)NC(CO)c2cccc(Cl)c2)c1 (stereo not drawn) [Compound 215, N-(1-(3-chlorophenyl)-2-hydroxyethyl)-1-(5-methyl-2-((4-(piperidin-4-yl)phenyl)amino)pyrimidin-4-yl)-1H-pyrrole-3-carboxamide]
ERK1; HTRF
  IC50: 50 to 100 nM
ERK2; HTRF
  IC50: ≤ 50 nM

## O=C(NC(CO)c1ccccc1)c1ccn(-c2ccnc(Nc3ccccc3)c2)c1 (stereo not drawn) [Compound 71, N-(2-hydroxy-1-phenylethyl)-1-(2-(phenylamino)pyridin-4-yl)-1H-pyrrole-3-carboxamide]
ERK1; HTRF
  IC50: < 50 nM
ERK2; HTRF
  IC50: ≤ 50 nM

## Cc1cnc(NC(CO)CO)nc1-n1cnc(C(=O)N[C@H](CO)c2cccc(Cl)c2)c1 [Example 260, (S)-N-(1-(3-chlorophenyl)-2-hydroxyethyl)-1-(2-((1,3-dihydroxy-propan-2-yl)amino)-5-methylpyrimidin-4-yl)-1H-imidazole-4-carboxamide]
ERK1; HTRF
  IC50: < 50 nM
ERK2; HTRF
  IC50: ≤ 50 nM

## Cc1cnc(Nc2ccc(F)cc2Cl)nc1-n1cnc(C(=O)N[C@H](CO)c2cccc(Cl)c2)c1 [Compound 241, (S)-1-(2-((2-chloro-4-fluorophenyl)-amino)-5-methyl-pyrimidin-4-yl)-N-(1-(3-chlorophenyl)-2-hydroxyethyl)-1H-imidazole-4-carboxamide]
ERK1; HTRF
  IC50: < 50 nM
ERK2; HTRF
  IC50: ≤ 50 nM

## Cc1cnc(NC2CCCOC2)nc1-n1ccc(C(=O)N[C@H](CO)c2cccc(Cl)c2)c1 (stereo partly drawn) [Compound 152, N-((S)-1-(3-chlorophenyl)-2-hydroxyethyl)-1-(5-methyl-2-((tetrahydro-2H-pyran-3-yl)amino)pyrimidin-4-yl)-1H-pyrrole-3-carboxamide]
ERK1; HTRF
  IC50: < 50 nM
ERK2; HTRF
  IC50: ≤ 50 nM

## O=C(N[C@H](CO)c1cccc(Cl)c1)c1ccn(-c2ccnc(NC3CCOC3)c2)c1 (stereo partly drawn) [Compound 188, N-((S)-1-(3-chlorophenyl)-2-hydroxyethyl)-1-(2-((tetrahydrofuran-3-yl)amino)pyridin-4-yl)-1H-pyrrole-3-carboxamide]
ERK1; HTRF
  IC50: 100 to 500 nM
ERK2; HTRF
  IC50: 100 to 500 nM

## CC(=O)OCc1c(Cl)cccc1CNC(=O)c1cn(-c2nc(N[C@H]3CCOC3)ncc2C)cn1 [Example 342, (S)-2-chloro-6-((1-(5-methyl-2-((tetrahydrofuran-3-yl)amino)pyrimidin-4-yl)-1H-imidazole-4-carboxamido)-methyl)benzyl acetate]
ERK1; HTRF biochemical assay
  IC50: < 50 nM
ERK2; HTRF biochemical assay
  IC50: ≤ 50 nM

## CC[C@@H](CO)Nc1ncc(C)c(-n2ccc(C(=O)N[C@H](CO)c3cccc(Cl)c3)c2)n1 [Compound 219, N-((S)-1-(3-chlorophenyl)-2-hydroxyethyl)-1-(2-(((S)-1-hydroxy-butan-2-yl)amino)-5-methylpyrimidin-4-yl)-1H-pyrrole-3-carboxamide]
ERK1; HTRF
  IC50: < 50 nM
ERK2; HTRF
  IC50: ≤ 50 nM

## Cc1cnc(Nc2ccc(F)cc2)nc1-n1cnc(C(=O)N[C@@H](CN)c2cccc(Cl)c2)c1 [Compound 249, (R)-N-(2-amino-1-(3-chlorophenyl)-ethyl)-1-(2-((4-fluorophenyl)-amino)-5-methyl-pyrimidin-4-yl)-1H-imidazole-4-carboxamide]
ERK1; HTRF
  IC50: 500 to 2500 nM
ERK2; HTRF
  IC50: 100 to 500 nM

## Cc1cnc(Nc2ccc3c(c2)OC(C)(C)O3)nc1-n1ccc(C(=O)NC(CO)c2ccccc2)c1 (stereo not drawn) [Compound 95, 1-(2-((2,2-dimethylbenzo[d] [1,3]dioxol-5-yl)-amino)-5-methyl-pyrimidin-4-yl)-N-(2-hydroxy-1-phenylethyl)-1H-pyrrole-3-carboxamide]
ERK1; HTRF
  IC50: 50 to 100 nM
ERK2; HTRF
  IC50: ≤ 50 nM

## Cc1cnc(N[C@@H]2CCOC2)nc1-n1cnc(C(=O)N[C@H](CN)c2cccc(Cl)c2)c1 [Example 264, N-((S)-2-amino-1-(3-chlorophenyl)-ethyl)-1-(5-methyl-2-(((R)-tetrahydrofuran-3-yl)amino)pyrimidin-4-yl)-1H-imidazole-4-carboxamide]
ERK1; HTRF
  IC50: < 50 nM
ERK2; HTRF
  IC50: ≤ 50 nM

## Cc1cccc(C(CO)NC(=O)c2cn(-c3nc(NC4CCOCC4)ncc3C)cn2)c1 (stereo not drawn) [Compound 238, N-(2-hydroxy-1-(m-tolyl)ethyl)-1-(5-methyl-2-((tetrahydro-2H-pyran-4-yl)amino)pyrimidin-4-yl)-1H-imidazole-4-carboxamide]
ERK1; HTRF
  IC50: < 50 nM
ERK2; HTRF
  IC50: ≤ 50 nM

## Cc1cnc(NC2(CO)CC2)nc1-n1ccc(C(=O)NC(CO)c2ccc(F)c(Cl)c2)c1 (stereo not drawn) [Compound 203, N-(1-(3-chloro-4-fluorophenyl)-2-hydroxyethyl)-1-(2-((1-(hydroxy-methyl)cyclopropyl)amino)-5-methyl-pyrimidin-4-yl)-1H-pyrrole-3-carboxamide]
ERK1; HTRF
  IC50: 100 to 500 nM
ERK2; HTRF
  IC50: 100 to 500 nM

## Cc1cnc(Nc2ccnn2C)nc1-n1cnc(C(=O)N[C@H](CO)c2cccc(Cl)c2)c1 [Example 277, (S)-N-(1-(3-chlorophenyl)-2-hydroxyethyl)-1-(5-methyl-2-((1-methyl-1H-pyrazol-5-yl)amino)-pyrimidin-4-yl)-1H-imidazole-4-carboxamide]
ERK1; HTRF
  IC50: < 50 nM
ERK2; HTRF
  IC50: ≤ 50 nM

## Cc1cnc(Nc2cccnc2)cc1-n1ccc(C(=O)NC(CO)c2ccccc2)c1 (stereo not drawn) [Compound 81, N-(2-hydroxy-1-phenylethyl)-1-(5-methyl-2-(pyridin-3-ylamino)pyridin-4-yl)-1H-pyrrole-3-carboxamide]
ERK1; HTRF
  IC50: < 50 nM
ERK2; HTRF
  IC50: ≤ 50 nM

## COc1ccc(Nc2ncc(C)c(-n3ccc(C(=O)NC(CO)c4cccc(Cl)c4)c3)n2)cc1OCCCN(C)C (stereo not drawn) [Compound 184, N-(1-(3-chloro-phenyl)-2-hydroxy-ethyl)-1-(2-((3-(3-(dimethylamino)propoxy)-4-methoxy-phenyl)amino)-5-methylpyrimidin-4-yl)-1H-pyrrole-3-carboxamide]
ERK1; HTRF
  IC50: < 50 nM
ERK2; HTRF
  IC50: ≤ 50 nM

## Cc1cnc(NC2CCOCC2)nc1-n1cnc(C(=O)NCc2ccccc2CCO)c1 [Compound 94, N-(2-(2-hydroxyethyl)benzyl)-1-(5-methyl-2-((tetrahydro-2H-pyran-4-yl)amino)pyrimidin-4-yl)-1H-imidazole-4-carboxamide]
ERK1; HTRF
  IC50: < 50 nM
ERK2; HTRF
  IC50: ≤ 50 nM

## Cc1cnc(Nc2ccccc2Cl)nc1-n1cc(NC(=O)NC(CO)c2cccc(Cl)c2)cn1 (stereo not drawn) [Compound 43, 1-(1-(3-chlorophenyl)-2-hydroxyethyl)-3-(1-(2-((2-chloro-phenyl)amino)-5-methylpyrimidin-4-yl)-1H-pyrazol-4-yl)urea]
ERK1; HTRF
  IC50: > 2500 nM
ERK2; HTRF
  IC50: > 2500 nM

## CC(=O)OCc1c(Cl)cccc1CNC(=O)c1cn(-c2nc(NC3CCOCC3)ncc2C)cn1 [Example 340, 2-chloro-6-((1-(5-methyl-2-((tetrahydro-2H-pyran-4-yl)amino)-pyrimidin-4-yl)-1H-imidazole-4-carboxamido)-methyl)benzyl acetate]
ERK1; HTRF biochemical assay
  IC50: < 50 nM
ERK2; HTRF biochemical assay
  IC50: ≤ 50 nM

## Cc1cnc(NC2CCOCC2)nc1-n1cnc(C(=O)N[C@H](CNCCO)c2cccc(Cl)c2)c1 [Example 333, (S)-N-(1-(3-chlorophenyl)-2-((2-hydroxyethyl)amino)ethyl)-1-(5-methyl-2-((tetrahydro-2H-pyran-4-yl)amino)-pyrimidin-4-yl)-1H-imidazole-4-carboxamide]
ERK1; HTRF biochemical assay
  IC50: < 50 nM
ERK2; HTRF biochemical assay
  IC50: ≤ 50 nM

## CNC[C@@H](NC(=O)c1cn(-c2nc(NC3CCOCC3)ncc2C)cn1)c1cccc(Cl)c1 [Example 326, (S)-N-(1-(3-chlorophenyl)-2-(methylamino)ethyl)-1-(5-methyl-2-((tetrahydro-2H-pyran-4-yl)amino)-pyrimidin-4-yl)-1H-imidazole-4-carboxamide]
ERK1; HTRF biochemical assay
  IC50: < 50 nM
ERK2; HTRF biochemical assay
  IC50: ≤ 50 nM

## CC[C@H](CO)Nc1ncc(C)c(-n2cnc(C(=O)NCc3cccc(Cl)c3CO)c2)n1 [Example 336, (R)-N-(3-chloro-2-(hydroxymethyl)-benzyl)-1-(2-((1-hydroxybutan-2-yl)amino)-5-methylpyrimidin-4-yl)-1H-imidazole-4-carboxamide]
ERK1; HTRF biochemical assay
  IC50: < 50 nM
ERK2; HTRF biochemical assay
  IC50: ≤ 50 nM

## Cc1cnc(Nc2ccc(F)cc2)cc1-n1ccc(C(=O)NC(CN)c2ccc(F)c(Cl)c2)c1 (stereo not drawn) [Compound 164, N-(2-amino-1-(3-chloro-4-fluoro-phenyl)ethyl)-1-(2-((4-fluorophenyl)-amino)-5-methyl-pyridin-4-yl)-1H-pyrrole-3-carboxamide]
ERK1; HTRF
  IC50: < 50 nM
ERK2; HTRF
  IC50: ≤ 50 nM

## Cc1cnc(NC2CCCN(C)C2)nc1-n1ccc(C(=O)NC(CO)c2cccc(Cl)c2)c1 (stereo not drawn) [Compound 199, N-(1-(3-chloro-phenyl)-2-hydroxy-ethyl)-1-(5-methyl-2-((1-methyl-piperidin-3-yl)-amino)pyrimidin-4-yl)-1H-pyrrole-3-carboxamide]
ERK1; HTRF
  IC50: < 50 nM
ERK2; HTRF
  IC50: ≤ 50 nM

## Cc1cnc(Nc2ccc3c(c2)OCO3)nc1-n1cc(NC(=O)N[C@H](CO)c2cccc(Cl)c2)cn1 [Compound 44, (S)-1-(1-(2-(benzo[d][1,3]dioxol-5-ylamino)-5-methylpyrimidin-4-yl)-1H-pyrazol-4-yl)-3-(1-(3-chloro-phenyl)-2-hydroxy-ethyl)urea]
ERK1; HTRF
  IC50: 50 to 100 nM
ERK2; HTRF
  IC50: ≤ 50 nM
